What all share (assay): Kinase selectivity, Mobility shift assay
What all share (assay type): biochemical

One assay addresses SGK (Homo sapiens (Human), UniProt O00141). The method, then: (§1) Object: In this assay, the inhibitory activity of the test substance on the kinases listed in Table 3 was determined, and therefore the selectivity of the present compound was determined.
(§2) Except for the BRAF V600E kinase in Table 3, the Mobility shift assay was used for other kinases.
(§3) 1. Preparation of Agents:
(§4) • 1.1 1-fold kinase buffer without MnCl2: 50 mM HEPES, pH 7.5, 0.0015% Brij-35, 10 mM MgCl2, 2 mM DTT. • 1.2 1-fold kinase buffer with MnCl2: 50 mM HEPES, pH 7.5, 0.0015% Brij-35, 10 mM MgCl2, 10 mM MnCl2, 2 mM DTT. • 1.3 Termination solution: 100 mM HEPES, pH 7.5, 0.0015% Brij-35, 0.2% Coating Reagent#3, 50 mM EDTA. • 1.4 2.5-fold kinase solution: The kinase was added to the 1-fold kinase buffer to form a 2.5-fold kinase solution. • 1.5 2.5-fold substrate solution: FAM fluorescence-labelled polypeptide and ATP were added to the 1-fold kinase buffer to form a 2.5-fold substrate solution. 2. Preparation of 5-fold compound
(§5) The final test concentration of the compound was 10 μM at maximum. Firstly, a 50-fold concentration (i.e. 500 μM) was prepared with 100% DMSO. The compound was diluted with 100% DMSO by 5 folds at 5 concentrations (successively 500 μM, 100 μM, 20 μM, 4 μM, and 0.8 μM). After diluting with 1-fold kinase buffer by 10 folds, 5 μl of the samples were transferred to a 384-well reaction plate. Two negative control wells and two positive control wells were set at each line respectively. Replication was made in a 96-well plate in five concentrations of 5-fold compound. 10% DMSO was added to the positive control well, and 5 μl of EDTA (250 mM) was added to the negative control well.
(§6) • 3.1 To the 384-well reaction plate was added 5-fold compound dissolved in 10% DMSO at 5 μl/well. • 3.2 To the 384-well reaction plate was added 2.5-fold kinase solution at 10 μl/well. The plate was incubated at room temperature for 10 mins. • 3.3 To the 384-well reaction plate was added 2.5-fold substrate solution at 10 μl/well. The plate was incubated at 28° C. for a certain period. • 3.4 25 μl termination solution was added to terminate the reaction. The conversion was read from Caliper. 4. Inhibition rate calculation Inhibition rate (%)=(maximum−sample value)/(maximum−minimum)×100 • wherein: • maximum refers to the conversion at the DMSO control well, • minimum refers to the conversion at the control well without kinase. Lanthascreen Analysis Method for the BRAF V600E Kinase 1. Preparation of Agents: • 1.1 2-fold kinase solution: using 1-fold kinase buffer to prepare 2-fold kinase solution, with a final concentration of 0.35 nM of BRAFV600E; • 1.2 4-fold substrate solution: using 1-fold kinase buffer to prepare 4-fold substrate solution, with a final substrate solution concentration of 0.2 μM of Fluorescein-MAP2K1 and 1.5 μM of ATP. 2. Preparation of 4-fold compound • The final test concentration of the compound was 10 μM at maximum. Firstly, a 100-fold concentration (i.e. 1000 μM) was prepared with 100% DMSO. The compound was diluted with 100% DMSO by 5 folds at 5 concentrations. The compound series was identical to that in the Mobility Shift Assay. After diluting with 1-fold kinase buffer by 25 folds, the resulting samples were shaked and mixed evenly on a plate-shaker for 10 mins. 3. Procedure • 3.1 To the 384-well reaction plate was added 4-fold compound dissolved in 10% DMSO at 2.5 µl/well; • 3.2 To the 384-well reaction plate was added 2-fold kinase solution at 5 μl/well, and to the negative control wells were added 1-fold kinase buffer. The samples were shaked, mixed evenly, and kept standing at room temperature. • 3.3 To the 384-well reaction plate was added 4-fold substrate solution at 2.5 μl/well. The plate was reacted, shaked, mixed evenly and incubated at room temperature for one hour; • 3.4 Reaction result detection: 2-fold detection solution was prepared, with a final concentration of 2 nM of Antibody and 10 mM of EDTA. 10 μl of the detection solution was transferred to the 384-well plate to terminate the reaction. […]

The next assay addresses JAK2 (Homo sapiens (Human), UniProt O60674). The method, then:
as §1, §2, §3, §4, §5, §6

The target in another assay is CAMK2a (Homo sapiens (Human), UniProt Q9UQM7). The method, then: as §1, §2, §3, §4, §5, §6
Chain of CAMK2a (Q9UQM7 whole entry, species assumed): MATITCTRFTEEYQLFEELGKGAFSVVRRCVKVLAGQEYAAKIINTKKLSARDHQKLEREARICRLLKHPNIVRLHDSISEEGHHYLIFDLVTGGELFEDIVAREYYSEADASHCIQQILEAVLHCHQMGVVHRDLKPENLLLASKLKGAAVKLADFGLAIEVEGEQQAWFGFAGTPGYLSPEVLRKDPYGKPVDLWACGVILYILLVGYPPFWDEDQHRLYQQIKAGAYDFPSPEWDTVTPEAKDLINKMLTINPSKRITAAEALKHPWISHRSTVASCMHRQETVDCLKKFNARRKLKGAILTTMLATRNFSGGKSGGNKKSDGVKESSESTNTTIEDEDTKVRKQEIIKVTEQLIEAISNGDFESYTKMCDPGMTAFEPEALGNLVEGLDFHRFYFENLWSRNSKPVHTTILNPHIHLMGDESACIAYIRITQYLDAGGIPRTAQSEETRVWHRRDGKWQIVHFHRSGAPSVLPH
In a further assay the target is EGFR (Homo sapiens (Human), UniProt P00533). The method, then: as §1, §2, §3, §4, §5, §6
Chain of EGFR (P00533 25-1210, species assumed): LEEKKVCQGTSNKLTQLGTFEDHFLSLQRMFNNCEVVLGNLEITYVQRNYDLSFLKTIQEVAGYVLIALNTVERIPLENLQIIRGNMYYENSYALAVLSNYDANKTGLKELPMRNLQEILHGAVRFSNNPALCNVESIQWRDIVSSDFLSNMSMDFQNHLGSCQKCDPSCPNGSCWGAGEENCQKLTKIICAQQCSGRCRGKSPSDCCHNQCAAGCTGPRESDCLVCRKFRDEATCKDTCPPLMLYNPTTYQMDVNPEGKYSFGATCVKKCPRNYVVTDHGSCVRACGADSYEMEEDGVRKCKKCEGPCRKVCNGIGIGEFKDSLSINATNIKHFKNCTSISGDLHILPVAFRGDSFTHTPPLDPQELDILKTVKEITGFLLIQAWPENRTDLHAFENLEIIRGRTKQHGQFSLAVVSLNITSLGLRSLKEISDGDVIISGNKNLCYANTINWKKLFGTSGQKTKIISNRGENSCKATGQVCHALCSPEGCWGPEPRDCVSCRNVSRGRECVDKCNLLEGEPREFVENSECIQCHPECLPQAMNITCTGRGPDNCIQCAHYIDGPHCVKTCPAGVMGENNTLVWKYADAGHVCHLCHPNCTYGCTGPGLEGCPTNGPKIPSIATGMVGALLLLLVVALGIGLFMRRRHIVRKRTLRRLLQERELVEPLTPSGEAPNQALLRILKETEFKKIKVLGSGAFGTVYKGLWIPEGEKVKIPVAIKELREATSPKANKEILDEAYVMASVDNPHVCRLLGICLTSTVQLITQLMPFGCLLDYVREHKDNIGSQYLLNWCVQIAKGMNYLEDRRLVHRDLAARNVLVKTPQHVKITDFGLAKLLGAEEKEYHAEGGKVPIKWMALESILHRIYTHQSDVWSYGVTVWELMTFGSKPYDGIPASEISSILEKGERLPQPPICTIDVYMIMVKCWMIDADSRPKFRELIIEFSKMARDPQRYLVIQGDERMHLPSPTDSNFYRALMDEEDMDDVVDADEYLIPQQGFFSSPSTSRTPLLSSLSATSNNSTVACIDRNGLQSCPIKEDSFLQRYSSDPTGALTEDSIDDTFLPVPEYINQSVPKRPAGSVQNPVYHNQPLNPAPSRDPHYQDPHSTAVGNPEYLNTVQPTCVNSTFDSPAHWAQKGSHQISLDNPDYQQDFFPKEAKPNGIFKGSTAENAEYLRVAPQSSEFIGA
A further assay has as its target CSK (Homo sapiens (Human), UniProt P41240). How it is done:
as §1, §2, §3, §4, §5, §6

The next assay addresses Tie2 (Homo sapiens (Human), UniProt Q02763). How it is done:
as §1, §2, §3, §4, §5, §6

The target of the next assay is DYRK1b (Homo sapiens (Human), UniProt Q9Y463). The method, then: as §1, §2, §3, §4, §5, §6
Another assay concerns the target CDK2 (Homo sapiens (Human), UniProt P24941). How it is done:
as §1, §2, §3, §4, §5, §6

The target in a further assay is ABL (Homo sapiens (Human), UniProt P00519). How it is done:
as §1, §2, §3, §4, §5, §6

The next assay concerns the target PIM1 (Homo sapiens (Human), UniProt P11309). The method, then: as §1, §2, §3, §4, §5, §6
The next assay deals with JAK3 (Homo sapiens (Human), UniProt P52333). The method, then: as §1, §2, §3, §4, §5, §6
Another assay deals with NEK2 (Homo sapiens (Human), UniProt P51955). How it is done: as §1, §2, §3, §4, §5, §6
The target of a further assay is PKCa (Homo sapiens (Human), UniProt P17252). The method, then:
as §1, §2, §3, §4, §5, §6

The target in another assay is LYNa (Homo sapiens (Human), UniProt P07948). The method, then:
as §1, §2, §3, §4, §5, §6

The target of the next assay is CHK1 (Homo sapiens (Human), UniProt O14757). The method, then: as §1, §2, §3, §4, §5, §6
Chain of CHK1 (O14757 whole entry, species assumed): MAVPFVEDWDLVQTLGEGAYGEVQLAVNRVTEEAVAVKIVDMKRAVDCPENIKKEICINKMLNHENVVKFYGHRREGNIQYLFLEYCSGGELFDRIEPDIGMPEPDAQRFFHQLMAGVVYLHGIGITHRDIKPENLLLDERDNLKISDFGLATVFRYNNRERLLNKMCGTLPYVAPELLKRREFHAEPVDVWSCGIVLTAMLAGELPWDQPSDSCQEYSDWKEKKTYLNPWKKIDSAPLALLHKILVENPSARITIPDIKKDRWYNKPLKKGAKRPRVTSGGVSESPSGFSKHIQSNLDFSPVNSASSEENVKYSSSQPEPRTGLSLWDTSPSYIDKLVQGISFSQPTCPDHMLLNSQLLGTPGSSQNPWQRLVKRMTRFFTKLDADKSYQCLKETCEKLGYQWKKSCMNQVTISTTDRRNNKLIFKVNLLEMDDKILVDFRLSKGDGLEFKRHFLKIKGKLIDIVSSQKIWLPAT
For a further assay, the target named is ZAP70 (Homo sapiens (Human), UniProt P43403). How it is done: as §1, §2, §3, §4, §5, §6
The next assay addresses SRC (Homo sapiens (Human), UniProt P12931). The method, then: as §1, §2, §3, §4, §5, §6
A further assay concerns the target FGFR1 (Homo sapiens (Human), UniProt P11362). How it is done: as §1, §2, §3, §4, §5, §6
In the next assay the target is JNK2 (Homo sapiens (Human), UniProt P45984). How it is done: as §1, §2, §3, §4, §5, §6
Chain of JNK2 (P45984 whole entry, species assumed): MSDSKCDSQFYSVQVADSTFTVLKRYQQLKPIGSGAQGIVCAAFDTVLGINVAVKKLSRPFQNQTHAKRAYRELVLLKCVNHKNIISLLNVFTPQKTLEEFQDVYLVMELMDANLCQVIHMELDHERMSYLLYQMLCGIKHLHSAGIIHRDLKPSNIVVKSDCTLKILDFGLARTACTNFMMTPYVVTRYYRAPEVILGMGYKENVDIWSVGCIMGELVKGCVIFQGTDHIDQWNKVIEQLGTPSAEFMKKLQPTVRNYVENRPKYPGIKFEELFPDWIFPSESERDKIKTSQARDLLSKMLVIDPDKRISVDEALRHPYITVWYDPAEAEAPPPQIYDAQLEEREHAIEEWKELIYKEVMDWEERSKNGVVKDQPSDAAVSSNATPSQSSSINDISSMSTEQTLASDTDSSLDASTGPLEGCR

For orientation: IC50 means the midpoint of a concentration-inhibition curve.

Chain of SGK (O00141 whole entry, species assumed): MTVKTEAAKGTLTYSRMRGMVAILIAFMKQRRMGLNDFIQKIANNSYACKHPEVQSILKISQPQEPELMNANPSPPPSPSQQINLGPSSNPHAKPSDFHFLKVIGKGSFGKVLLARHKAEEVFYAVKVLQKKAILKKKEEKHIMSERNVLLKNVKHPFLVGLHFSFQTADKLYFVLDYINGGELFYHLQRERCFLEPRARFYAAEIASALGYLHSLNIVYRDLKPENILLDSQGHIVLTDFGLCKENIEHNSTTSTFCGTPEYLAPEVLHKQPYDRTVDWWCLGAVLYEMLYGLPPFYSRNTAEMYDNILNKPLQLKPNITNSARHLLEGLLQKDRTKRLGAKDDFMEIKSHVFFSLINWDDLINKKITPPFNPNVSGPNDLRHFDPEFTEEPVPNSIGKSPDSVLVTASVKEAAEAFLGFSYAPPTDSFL
Chain of JAK2 (O60674 whole entry, species assumed): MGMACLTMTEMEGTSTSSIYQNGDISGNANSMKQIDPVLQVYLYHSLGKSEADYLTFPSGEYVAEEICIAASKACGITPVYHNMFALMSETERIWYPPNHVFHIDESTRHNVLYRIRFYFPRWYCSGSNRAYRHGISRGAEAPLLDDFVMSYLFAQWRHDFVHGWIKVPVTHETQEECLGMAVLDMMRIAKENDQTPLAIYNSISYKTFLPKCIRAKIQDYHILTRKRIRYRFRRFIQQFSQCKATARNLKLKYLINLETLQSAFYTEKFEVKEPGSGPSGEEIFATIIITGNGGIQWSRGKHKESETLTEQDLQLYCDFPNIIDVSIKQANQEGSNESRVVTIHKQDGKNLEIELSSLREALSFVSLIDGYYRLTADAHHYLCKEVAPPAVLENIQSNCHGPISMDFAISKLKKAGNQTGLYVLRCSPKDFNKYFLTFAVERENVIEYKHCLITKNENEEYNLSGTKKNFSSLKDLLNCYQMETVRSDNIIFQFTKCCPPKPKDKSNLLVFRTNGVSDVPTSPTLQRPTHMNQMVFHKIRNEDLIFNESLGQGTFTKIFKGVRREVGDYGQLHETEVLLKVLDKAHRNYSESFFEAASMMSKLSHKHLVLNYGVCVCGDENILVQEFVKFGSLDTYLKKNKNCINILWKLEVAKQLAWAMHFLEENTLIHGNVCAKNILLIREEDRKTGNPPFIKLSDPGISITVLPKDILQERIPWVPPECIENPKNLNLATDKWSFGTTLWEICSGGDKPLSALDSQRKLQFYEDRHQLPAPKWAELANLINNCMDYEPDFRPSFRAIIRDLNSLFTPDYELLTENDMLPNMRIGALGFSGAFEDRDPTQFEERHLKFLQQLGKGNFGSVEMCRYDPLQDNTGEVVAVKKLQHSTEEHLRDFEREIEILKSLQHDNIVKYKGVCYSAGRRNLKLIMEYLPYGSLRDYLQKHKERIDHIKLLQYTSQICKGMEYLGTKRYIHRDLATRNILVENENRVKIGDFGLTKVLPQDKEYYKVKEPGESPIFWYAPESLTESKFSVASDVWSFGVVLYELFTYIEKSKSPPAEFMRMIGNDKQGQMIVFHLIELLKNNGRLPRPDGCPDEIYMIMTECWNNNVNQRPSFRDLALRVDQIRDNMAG
Chain of LYNa (P07948 whole entry, species assumed): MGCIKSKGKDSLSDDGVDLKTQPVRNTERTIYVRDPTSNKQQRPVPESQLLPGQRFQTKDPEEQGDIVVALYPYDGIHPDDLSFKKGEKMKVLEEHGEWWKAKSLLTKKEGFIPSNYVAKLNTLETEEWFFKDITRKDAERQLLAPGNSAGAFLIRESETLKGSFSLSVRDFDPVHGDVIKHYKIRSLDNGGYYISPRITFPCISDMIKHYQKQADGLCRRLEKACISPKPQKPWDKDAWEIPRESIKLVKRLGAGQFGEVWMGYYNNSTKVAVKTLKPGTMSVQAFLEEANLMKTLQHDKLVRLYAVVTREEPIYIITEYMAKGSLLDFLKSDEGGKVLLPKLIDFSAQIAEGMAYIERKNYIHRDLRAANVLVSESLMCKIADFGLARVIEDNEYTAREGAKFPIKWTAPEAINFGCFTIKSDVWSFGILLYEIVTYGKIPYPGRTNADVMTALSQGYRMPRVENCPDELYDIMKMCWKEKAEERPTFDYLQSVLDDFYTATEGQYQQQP
Chain of PIM1 (P11309 whole entry, species assumed): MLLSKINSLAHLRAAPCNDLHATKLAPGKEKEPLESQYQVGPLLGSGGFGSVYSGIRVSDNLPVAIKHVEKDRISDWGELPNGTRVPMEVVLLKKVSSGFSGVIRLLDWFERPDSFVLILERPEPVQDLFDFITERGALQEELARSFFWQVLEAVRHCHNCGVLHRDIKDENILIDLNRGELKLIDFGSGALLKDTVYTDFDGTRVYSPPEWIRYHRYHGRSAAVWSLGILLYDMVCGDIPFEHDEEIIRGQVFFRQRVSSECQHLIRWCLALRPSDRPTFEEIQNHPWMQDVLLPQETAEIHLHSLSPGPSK

`Nc1ccc(-c2ccc3ncc4c(=O)[nH]c(=O)n(-c5cccc(C(F)(F)F)c5)c4c3n2)cn1` [Compound 5, 9-(6-aminopyridin-3-yl)-1-(3-(trifluoromethyl)phenyl)pyrimido[5,4-c][1,5]naphthyridine-2,4(1H,3H)-dione]: the IC50 was above 10000 nM at SGK; above 10000 nM on JAK2; above 10000 nM at CAMK2a; above 10000 nM on EGFR; above 10000 nM on CSK; 2430 nM at Tie2. For the same compound, the IC50 on DYRK1b, at CDK2, at ABL, at PIM1, at JAK3 and on NEK2 was above 10000 nM each time. Moreover, the IC50 is above 10000 nM at PKCa; 1370 nM on LYNa; above 10000 nM at CHK1; above 10000 nM on ZAP70; 842 nM at SRC; above 10000 nM at FGFR1. Moreover, the IC50 at JNK2 was above 10000 nM.

The values are drawn from US9365572B2, “PI3K and/or mTOR inhibitor” (XUANZHU PHARMA CO., LTD., priority 2012, dated 2016).
